Results from PubChem BioAssay AID2060489 (Molecular Pharmacology Branch, DTP, NCI, 2025).

Test system: 922993-354-T-J3-PDC complex spheroids, viability
Test: Anticancer human tumor 922993-354-T-J3-PDC patient-derived endometrial carcinoma cell line growth inhibition [GQUAD]
Settings: for IC50: curve of first compound; for viability, T/C: stronger effect = lower value
Method in brief: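 Viability of tumor cells grown as complex spheroids with endothelial and stromal cells, exposed to drug combinations. Top concentration at or near clinical Cmax (else 10 microM), diluted in half-log increments.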

[1] = second compound 0.0316 µM, first compound 0.0316 µM
[2] = second compound 0.0316 µM, first compound 0.1 µM
[3] = second compound 0.0316 µM, first compound 0.316 µM
[4] = second compound 0.0316 µM, first compound 1 µM
[5] = second compound 0.0316 µM, first compound 3.16 µM
[6] = second compound 0.0316 µM, first compound 10 µM
[7] = second compound 0.1 µM, first compound 0.0316 µM
[8] = second compound 0.1 µM, first compound 0.1 µM
[9] = second compound 0.1 µM, first compound 0.316 µM
[10] = second compound 0.1 µM, first compound 1 µM
[11] = second compound 0.1 µM, first compound 3.16 µM
[12] = second compound 0.1 µM, first compound 10 µM
[13] = second compound 0.316 µM, first compound 0.0316 µM
[14] = second compound 0.316 µM, first compound 0.1 µM
[15] = second compound 0.316 µM, first compound 0.316 µM
[16] = second compound 0.316 µM, first compound 1 µM
[17] = second compound 0.316 µM, first compound 3.16 µM
[18] = second compound 0.316 µM, first compound 10 µM
[19] = second compound 1 µM, first compound 0.0316 µM
[20] = second compound 1 µM, first compound 0.1 µM
[21] = second compound 1 µM, first compound 0.316 µM
[22] = second compound 1 µM, first compound 1 µM
[23] = second compound 1 µM, first compound 3.16 µM
[24] = second compound 1 µM, first compound 10 µM
[25] = second compound 3.16 µM, first compound 0.0316 µM
[26] = second compound 3.16 µM, first compound 0.1 µM
[27] = second compound 3.16 µM, first compound 0.316 µM
[28] = second compound 3.16 µM, first compound 1 µM
[29] = second compound 3.16 µM, first compound 3.16 µM
[30] = second compound 3.16 µM, first compound 10 µM
[31] = second compound 10 µM, first compound 0.0316 µM
[32] = second compound 10 µM, first compound 0.1 µM
[33] = second compound 10 µM, first compound 0.316 µM
[34] = second compound 10 µM, first compound 1 µM
[35] = second compound 10 µM, first compound 3.16 µM
[36] = second compound 10 µM, first compound 10 µM
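Note: spheroids exposed to compounds for seven days.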
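Throughout, for viability, T/C: 100% = DMSO vehicle control viability.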

COc1cc(C2c3cc4c(cc3C(OC3OC5COC(C)OC5C(O)C3O)C3COC(=O)C23)OCO4)cc(OC)c1O (stereo not drawn) + CN(C)c1ccc(Nc2c3ccc(NC(=O)CCN4CCCC4)cc3nc3cc(NC(=O)CCN4CCCC4)ccc23)cc1
IC50 (second compound 0.0316 µM): > 10 µM
IC50 (second compound 0.1 µM): 9.49 µM
IC50 (second compound 0.316 µM): 9.2 µM
IC50 (second compound 1 µM): 8.94 µM
IC50 (second compound 3.16 µM): > 10 µM
IC50 (second compound 10 µM): > 10 µM
viability, T/C [1]: 116%
viability, T/C [2]: 90%
viability, T/C [3]: 90.7%
viability, T/C [4]: 88.1%
viability, T/C [5]: 72.5%
viability, T/C [6]: 58.3%
viability, T/C [7]: 109%
viability, T/C [8]: 102%
viability, T/C [9]: 91.3%
viability, T/C [10]: 85.2%
viability, T/C [11]: 81.1%
viability, T/C [12]: 46.3%
viability, T/C [13]: 90.6%
viability, T/C [14]: 101%
viability, T/C [15]: 83.7%
viability, T/C [16]: 79.5%
viability, T/C [17]: 82.9%
viability, T/C [18]: 46.9%
viability, T/C [19]: 79.7%
viability, T/C [20]: 79.7%
viability, T/C [21]: 105%
viability, T/C [22]: 71.5%
viability, T/C [23]: 95.8%
viability, T/C [24]: 46.1%
viability, T/C [25]: 109%
viability, T/C [26]: 99.3%
viability, T/C [27]: 114%
viability, T/C [28]: 98.5%
viability, T/C [29]: 91.8%
viability, T/C [30]: 58.3%
viability, T/C [31]: 94.4%
viability, T/C [32]: 106%
viability, T/C [33]: 111%
viability, T/C [34]: 79.3%
viability, T/C [35]: 106%
viability, T/C [36]: 70.5%

COc1cccc2c1C(=O)c1c(O)c3c(c(O)c1C2=O)CC(O)(C(=O)CO)CC3OC1CC(N)C(O)C(C)O1 (stereo not drawn) + CN(C)c1ccc(Nc2c3ccc(NC(=O)CCN4CCCC4)cc3nc3cc(NC(=O)CCN4CCCC4)ccc23)cc1
IC50 (second compound 0.0316 µM): 1.66 µM
IC50 (second compound 0.1 µM): 2.79 µM
IC50 (second compound 0.316 µM): 4.11 µM
IC50 (second compound 1 µM): 5.55 µM
IC50 (second compound 3.16 µM): 5.92 µM
IC50 (second compound 10 µM): 6.47 µM
viability, T/C [1]: 91.1%
viability, T/C [2]: 98%
viability, T/C [3]: 108%
viability, T/C [4]: 61.5%
viability, T/C [5]: 45.6%
viability, T/C [6]: 25.1%
viability, T/C [7]: 103%
viability, T/C [8]: 85.5%
viability, T/C [9]: 90.6%
viability, T/C [10]: 87.8%
viability, T/C [11]: 45.4%
viability, T/C [12]: 34.1%
viability, T/C [13]: 94%
viability, T/C [14]: 94.8%
viability, T/C [15]: 67.3%
viability, T/C [16]: 78.5%
viability, T/C [17]: 55.7%
viability, T/C [18]: 31.9%
viability, T/C [19]: 92.4%
viability, T/C [20]: 85.6%
viability, T/C [21]: 76.3%
viability, T/C [22]: 73.9%
viability, T/C [23]: 78.7%
viability, T/C [24]: 20.8%
viability, T/C [25]: 103%
viability, T/C [26]: 98.4%
viability, T/C [27]: 104%
viability, T/C [28]: 86.5%
viability, T/C [29]: 81%
viability, T/C [30]: 26.4%
viability, T/C [31]: 112%
viability, T/C [32]: 120%
viability, T/C [33]: 93.4%
viability, T/C [34]: 97.6%
viability, T/C [35]: 80%
viability, T/C [36]: 32.6%

Nc1ccn(C2OC(CO)C(O)C2(F)F)c(=O)n1 (stereo not drawn) + CN(C)c1ccc(Nc2c3ccc(NC(=O)CCN4CCCC4)cc3nc3cc(NC(=O)CCN4CCCC4)ccc23)cc1
IC50 (second compound 0.0316 µM): < 0.0316 µM
IC50 (second compound 0.1 µM): < 0.0316 µM
IC50 (second compound 0.316 µM): < 0.0316 µM
IC50 (second compound 1 µM): < 0.0316 µM
IC50 (second compound 3.16 µM): < 0.0316 µM
IC50 (second compound 10 µM): < 0.0316 µM
viability, T/C [1]: 13.6%
viability, T/C [2]: 14.7%
viability, T/C [3]: 11.9%
viability, T/C [4]: 16.6%
viability, T/C [5]: 10.6%
viability, T/C [6]: 12.7%
viability, T/C [7]: 13.4%
viability, T/C [8]: 13.2%
viability, T/C [9]: 12.2%
viability, T/C [10]: 10.8%
viability, T/C [11]: 10.4%
viability, T/C [12]: 11.9%
viability, T/C [13]: 13.9%
viability, T/C [14]: 9.77%
viability, T/C [15]: 10.7%
viability, T/C [16]: 13.1%
viability, T/C [17]: 9.83%
viability, T/C [18]: 11.2%
viability, T/C [19]: 12.5%
viability, T/C [20]: 8.2%
viability, T/C [21]: 12%
viability, T/C [22]: 13%
viability, T/C [23]: 12%
viability, T/C [24]: 11.8%
viability, T/C [25]: 13.8%
viability, T/C [26]: 11.6%
viability, T/C [27]: 16.8%
viability, T/C [28]: 12.2%
viability, T/C [29]: 11.3%
viability, T/C [30]: 13.3%
viability, T/C [31]: 15.8%
viability, T/C [32]: 11.4%
viability, T/C [33]: 11.6%
viability, T/C [34]: 14.4%
viability, T/C [35]: 11%
viability, T/C [36]: 11.3%

O=c1[nH]cc(F)c(=O)[nH]1 + CN(C)c1ccc(Nc2c3ccc(NC(=O)CCN4CCCC4)cc3nc3cc(NC(=O)CCN4CCCC4)ccc23)cc1
IC50 (second compound 0.0316 µM): 5.9 µM
IC50 (second compound 0.1 µM): 4.59 µM
IC50 (second compound 0.316 µM): 3.93 µM
IC50 (second compound 1 µM): 5.83 µM
IC50 (second compound 3.16 µM): 5.93 µM
IC50 (second compound 10 µM): 5.37 µM
viability, T/C [1]: 82.1%
viability, T/C [2]: 84.7%
viability, T/C [3]: 81.8%
viability, T/C [4]: 91.8%
viability, T/C [5]: 83.7%
viability, T/C [6]: 21.4%
viability, T/C [7]: 110%
viability, T/C [8]: 93.9%
viability, T/C [9]: 112%
viability, T/C [10]: 81%
viability, T/C [11]: 69.2%
viability, T/C [12]: 15.7%
viability, T/C [13]: 103%
viability, T/C [14]: 100%
viability, T/C [15]: 91.4%
viability, T/C [16]: 78.1%
viability, T/C [17]: 56.8%
viability, T/C [18]: 22.5%
viability, T/C [19]: 95.8%
viability, T/C [20]: 100%
viability, T/C [21]: 90.6%
viability, T/C [22]: 105%
viability, T/C [23]: 82.1%
viability, T/C [24]: 21.9%
viability, T/C [25]: 90.4%
viability, T/C [26]: 113%
viability, T/C [27]: 105%
viability, T/C [28]: 98.2%
viability, T/C [29]: 87.5%
viability, T/C [30]: 18.8%
viability, T/C [31]: 117%
viability, T/C [32]: 135%
viability, T/C [33]: 121%
viability, T/C [34]: 117%
viability, T/C [35]: 72.9%
viability, T/C [36]: 23.1%
